This note sets out measurements from patent US8927570B2, “1-naphthyl-or 1-dihydroacenaphthenyl-pyrido[B]indoles and uses thereof in treating cancers” (priority 2009, dated 2015).

The test system of series [1] is HCT116 colon cancer cells. The series can be described thus: In vitro antiproliferative activity, HCT116 colon cancer cells. Type of series: cell-based. The settings on record: Homo sapiens, HCT-116, Table 1. On the procedure: (§1) Substituted β-carboline compounds 4 to 38 were tested for antiproliferative activity against HCT116 colon cancer cells and HPAC, Mia-PaCa2 and Panc-1 pancreatic cancer cell lines. Table 1 lists the IC50 values for the substituted β-carbolines.

A further series deals with HCT116 P53 −/−. Put plainly: In vitro antiproliferative activity, HCT116 P53 −/− cells. The settings on record: Homo sapiens, HCT-116, Table 1. It counts as cell-based. On the procedure: as §1
Series [2] has as its system HPAC pancreatic cancer cell line. The series can be described thus: In vitro antiproliferative activity, HPAC pancreatic cancer cell line. It counts as cell-based. The conditions noted are these: Homo sapiens, Table 1. On the procedure:
as §1
(§2) Substituted β-carbolines and analog compounds 39 to 57 were tested for antiproliferative activity against HPAC, Mia-PaCa2 and Panc-1 pancreatic cancer cell lines and MCF-7 and MDA-MB-468 breast cancer cell lines. Table 2 lists the IC50 values for the substituted β-carbolines and analogs thereof.

For series [3], the system named is Mia-PaCa2 pancreatic cancer cell line. Put plainly: In vitro antiproliferative activity, Mia-PaCa2 pancreatic cancer cell line. It counts as cell-based. The conditions noted are these: Homo sapiens, MIA PaCa-2, Table 1. Here is the method:
as §1, §2

Series [4] concerns Panc-1 pancreatic cancer cell line. The series can be described thus: In vitro antiproliferative activity, Panc-1 pancreatic cancer cell line. It counts as cell-based, human. The conditions noted are these: Homo sapiens, Table 1. Here is the method:
as §2

Series [5] relates to MDA-MB-468 breast cancer xenografts. Put plainly: Antitumor activity in nude mice bearing MDA-MB-468 breast cancer xenografts. It counts as in vivo. The conditions noted are these: 40 mg/kg i.p., after 18 days. On the procedure:
FIGS. 2A-2B illustrate antitumor activity on tumor mass (FIG. 2A) and on body weight (FIG. 2B) of compound 19 treatment in nude mice bearing human MDA-MB-468 breast cancer xenografts.
(§3) Nude mice bearing MDA-MB-468 breast cancer (FIGS. 2A-2B) and Panc-1 pancreatic cancer (FIGS. 3A-3B) xenografts were administered 40 mg/kg i.p. of compound 19 and tumor mass and body weights were measured daily for 18 days compared to a PEG-ethanol-saline control.

Series [6] deals with Panc-1 pancreatic cancer xenografts. Put plainly: Antitumor activity in nude mice bearing Panc-1 pancreatic cancer xenografts. The conditions noted are these: 40 mg/kg i.p., after 18 days. Type of series: in vivo. On the procedure: FIGS. 3A-3B illustrate antitumor activity on tumor mass (FIG. 3A) and on body weight (FIG. 3B) of compound 19 treatment in nude mice bearing Panc-1 human pancreatic cancer xenografts.
as §3

In series [7] the test system is DU145 prostate cancer xenografts. Put plainly: Antitumor activity in nude mice bearing DU145 prostate cancer xenografts. Type of series: in vivo. Here is the method: FIGS. 4A-4B illustrate antitumor activity on tumor growth (FIG. 4A) and on body weight (FIG. 4B) of compound 19 treatment in nude mice bearing human DUI145 prostate cancer xenografts.
Nude mice bearing DU145 prostate cancer xenografts were administered i.p. 10 mg/kg, 20 mg/kg or control of compound 19 and tumor growth (FIG. 4A) and body weight (FIG. 4B) was monitored over 25 days. […]

The subject of series [8] is HCT116, MCF-7, A549, LNCaP, DU145 and PC-3 cancer cells. Put plainly: Flow cytometry, cell cycle kinetics of cancer cells. Type of series: cell-based, human. The conditions noted are these: 15 mM in 0.1% DMSO. Here is the method: (§4) Flow cytometry experiments were performed to show the effects of Compound 19, and anticancer drugs Adriamycin or Camptothecin treatment on the cell cycle kinetics of various human cells (FIGS. 8A-8I and 9A-9I), MCF-7 breast cancer cells (FIGS. 5A-5F), A549 lung cancer cells (FIGS. 7A-7I), LNCaP (FIGS. 10A-10I), DU145 (FIGS. 11A-11I) and PC-3 (FIGS. 12A-12I) prostate cancer cells, as well as cultured normal human fibroblasts (FIGS. 6A-6F). The compound or drugs were applied at a concentration of 15 mM in 0.1% DMSO as the vehicle, and cells incubated for the time point indicated in hours (hr). The control samples were treated with vehicle without compound or drug. Red histograms represent cells in the G1/G0 phase (histogram to the left) and cells in the G2/M phases (histogram to the right). The interval between the G1/G) and G2/M histograms is the S-phase of the cell cycle. The subG1/GO histograms (cyan colored) represent cells undergoing apoptosis (programmed cell death).
For orientation: A flow cytometer gives signals particle by particle.

The test system of series [9] is cultured normal human fibroblasts. The series can be described thus: Flow cytometry, cell cycle kinetics of cultured normal human fibroblasts. It counts as cell-based. The settings on record: 15 mM in 0.1% DMSO; normal human fibroblasts. On the procedure:
as §4

As a reminder, the IC50 is the concentration that gives 50% inhibition. High values mean weaker potency, low ones greater potency.

For `COc1ccc2[nH]c3c(-c4ccoc4)nccc3c2c1` [Compound 9, 1-Furan-3-yl-6-methoxy-9H-β-carboline], the IC50 stood at 60900 nM in series [1], 53700 nM in the series with HCT116 P53 −/− and 45100 nM in [2].

For the compound `COc1ccc2[nH]c3c(-c4ccnc5ccccc45)nccc3c2c1` [Compound 11, 6-Methoxy-1-quinolin-4-yl-9H-β-carboline], the IC50 in series [1] amounted to 510 nM; with HCT116 P53 −/−, 460 nM; in [2], 560 nM; in series [3] it was 490 nM; in series [4], 580 nM.

As for `COc1ccc2[nH]c3c(-c4cccc5ccccc45)nccc3c2c1` [Compound 19, 6-Methoxy-1-naphthalen-1-yl-9H-β-carboline], the IC50 in [1] amounted to 130 nM; in series [2] it was 290 nM; in series [3], 200 nM; in [4] it was 290 nM. In addition, the body weight entry is recorded as “nor had body weight decreased” in [5]; “nor had body weight decreased” in series [6]; “remained fairly constant” in [7] (10 mg/kg and 20 mg/kg i.p., over 25 days). In addition, the tumor mass entry in [5] (vs PEG-ethanol-saline control) and in series [6] (vs PEG-ethanol-saline control) was “had not increased” throughout. In series [7] (10 mg/kg i.p., at about day 7), the “percent of tumor growth” value is “less than control”. Also, the “rate of tumor growth” value in series [7] (10 mg/kg i.p., over the 25 days) was “about equivalent to that of control”. The tumor growth result in [7] (20 mg/kg i.p., over 25 days) is “significant decrease in tumor growth compared to 10 mg/kg and control”. The “cell cycle arrest mechanism in cancer cells” value in [8] is “G2/M arrest mechanism(s)”. In series [9], the “perturbation of the cell cycle of normal human cells” value is “no significant perturbation”.
